The target of one data set is ERα (Homo sapiens (Human), UniProt P03372). Kind of data set: Degradation experiment of MCF-7 ERα (ELISA). The following applies: MCF-7 cell line, 4 hours incubation, total ERα ELISA; read-out: IC50 value of promoting ERα degradation. The format is cell-based. The source says:
(2) Degradation Experiment of MCF-7 ERα Experimental Materials:
Phenol red-free MEM culture medium was purchased from Wisent, fetal bovine serum was purchased from Biosera, and Human Total ERα/NR3A1 ELISA kit was purchased from R&D. MCF-7 cell line was purchased from Cell Bank of Type Culture Collection of Chinese Academy of Sciences. Nivo5 multi-label analyzer (PerkinElmer).
MCF-7 cells were resuspended in culture medium (phenol red-free MEM+5% charcoal/dextran-treated fetal bovine serum+1% penicillin-streptomycin double antibody solution), and seeded in a clear 96-well cell culture plate with 80 μL per well containing 20,000 cells, and the cell culture plate was incubated overnight in a carbon dioxide incubator;
ELISA plate was coated with strips, human total estrogen receptor a capture antibody was diluted with 1×PBS with a final concentration of 1 μg/mL, and 100 μL of mixture was added to each well, and incubated overnight at 25° C.
Cell administration: The test compound was diluted to the 8th concentration with a multi-channel pipette, and the compound concentration was 20 μM and 4 μM, and then diluted to the 8th concentration of 0.256 nM in turn, and a double-duplicate experiment was set-up. 78 μL of culture medium was added to the middle plate, then 2 μL of gradient dilution compound per well was transferred to the middle plate according to the corresponding position, and 20 μL of the mixture per well was mixed evenly and transferred to the cell plate, and the final concentration of DMSO was 0.5%, and the mixture was incubated at 37° C. for 4 hours;
preparation of standard curve solution: 110 ng/mL of standard curve storage solution was 6-fold diluted with buffer (1×PBS containing 1 mM EDTA, 0.5% Triton X-100, pH 7.2 to 7.4) to obtain a solution with a concentration of 18.3 ng/mL, and then 91.5-fold diluted with buffer (1×PBS containing 1 mM EDTA, 0.5% Triton X-100, 1 M urea, pH 7.2 to 7.4) to obtain a solution with a concentration of 0.2 ng/mL, and 8-point gradient dilution was performed using buffer (1×PBS containing 1 mM EDTA, 0.5% Triton X-100, 1 M urea, pH 7.2 to 7.4) with a final concentration of […].
1×PBS was pre-cooled, and after the incubation of the compound, the supernatant was removed, and then the plate was washed with 250 μL of pre-cooled 1×PBS per well, then 30 µL of cell lysate per well (1×PBS containing 1 mM EDTA, 0.5% Triton X-100, 6 M urea, 1 mM active sodium orthovanadate, 2.5 mM sodium pyrophosphate, lx protease inhibitor, pH 7.2 to 7.4) was added, and lysed on ice for 15 minutes;
after cell was lysed in the cell plate, the cell lysate was 6-fold diluted with 150 μL of buffer (1×PBS containing 1 mM EDTA, 0.5% Triton X-100, pH 7.2 to 7.4) per well, and the mixture was mixed evenly by blowing with a multi-channel pipette, and 100 μL of solution per well was transferred to the ELISA plate;
the human total estrogen receptor a detection antibody stock solution (14.4 μg/mL) was 36-fold diluted with buffer (1×PBS containing 1% bovine serum albumin), and the final concentration of the detection antibody was 400 ng/mL, and 100 μL of the solution per well was transferred to the ELISA plate and incubated at 25° C. for 2 hours;
Data analysis: A, B, C and D in the four-parameter equation y=(A−D)/[1+(x/C)^B]+D were calculated according to the original data of the standard curve, wherein, y was the original OD450 value, x was the concentration of the corresponding point of the standard curve. According to the four-parameter equation and the OD450 reading of the original data of the sample, the concentration of ERα at the corresponding point was calculated. The equation (Sample−Min)/(Max−Min)×100% was used to convert the original data into inhibition rate, and the IC50 value could be obtained by curve fitting with four parameters (obtained by “log (inhibitor) vs. response—variable slope” mode in GraphPad Prism).
Max wells: Positive control wells reading at 100 nM Fulvestrant-treated cell wells […]

The target of another data set is CYP3A4 (Homo sapiens (Human), UniProt P08684). Kind of data set: Cytochrome P450 isoenzyme inhibition, human liver microsomes. In kind it is in vitro ADME. Here is the method: (§1) Experimental purposes: To test the inhibitory effect of test compound on the activity of human liver microsomal cytochrome P450 isoenzymes (CYP1A2 and CYP3A4) (Corning, Co., Ltd.).
(§2) Experimental operation: Firstly, the test compound (10 mM) was subjected to gradient dilution to prepare a working solution (100×final concentration), and the concentration of the working solution was: 5, 1.5, 0.5, 0.15, 0.05, 0.015 and 0.005 mM, respectively, and the working solution of each positive inhibitor of P450 isoenzyme (CYP1A2 and CYP3A4) and its specific substrate mixture (5 in 1) were prepared; and then the human liver microsomes frozen in the −80° C. refrigerator were thawed on ice, and all the human liver microsomes were dissolved, diluted with PB, and a certain concentration of working solution (0.253 mg/mL) was prepared; 20 μL of substrate mixture was added to the reaction plate (20 μL of PB was added to the blank well), while 158 μL of human liver microsomal working solution was added to the reaction plate, and the reaction plate was placed on ice for later use; at this time, 2 μL of various concentrations of the test compound (N=1) and specific inhibitor (N=2) were added to the corresponding well, and the corresponding organic solvent was added to the non-inhibitor (test compound or positive inhibitor) group as a control group sample (a ratio of DMSO:MeOH in the test compound control sample was 1:1, a ratio of DMSO:MeOH in the positive control sample was 1:9); after pre-incubation in a water bath at 37° C. for 10 min, 20 μL of coenzyme factor (NADPH) solution was added to the reaction plate, and incubated in a water bath at 37° C. for 10 min; and 400 μL of cold acetonitrile solution (internal standard was 200 ng/mL tolbutamide and labetalol) was added to terminate the reaction; the reaction plate was placed on a shaker and shaked for 10 minutes; and then centrifuged at 4,000 rpm for 20 minutes; 200 μL of the supernatant was taken and added to 100 μL of water for sample dilution; finally the plate was sealed, shaked and shaked well, for LC/MS/MS detection.
On the technique in general: Liver microsomes are a subcellular fraction often used to study metabolism.

A further data set addresses CYP1A2 (Homo sapiens (Human), UniProt P05177). The format is in vitro ADME. The following applies: microsomes. As for the experimental part: as §1, §2

Molecules are shown by their SMILES. Read-outs that look alike come from different tables or passages of the source. Some results are limits rather than exact numbers.

Sequence of CYP3A4 (P08684 whole entry): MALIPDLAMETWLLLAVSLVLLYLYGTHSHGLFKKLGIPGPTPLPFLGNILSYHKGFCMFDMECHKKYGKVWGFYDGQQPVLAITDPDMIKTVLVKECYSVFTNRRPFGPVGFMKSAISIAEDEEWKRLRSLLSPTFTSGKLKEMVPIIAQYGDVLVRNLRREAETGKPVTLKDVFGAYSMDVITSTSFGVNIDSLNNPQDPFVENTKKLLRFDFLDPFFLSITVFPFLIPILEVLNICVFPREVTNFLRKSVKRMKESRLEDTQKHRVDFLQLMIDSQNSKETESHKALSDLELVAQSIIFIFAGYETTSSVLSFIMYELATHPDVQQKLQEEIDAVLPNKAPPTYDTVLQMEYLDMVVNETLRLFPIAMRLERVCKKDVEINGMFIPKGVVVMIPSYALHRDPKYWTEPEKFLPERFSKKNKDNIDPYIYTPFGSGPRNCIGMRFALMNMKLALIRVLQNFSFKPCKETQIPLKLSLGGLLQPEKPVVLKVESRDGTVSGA
Sequence of CYP1A2 (P05177 whole entry): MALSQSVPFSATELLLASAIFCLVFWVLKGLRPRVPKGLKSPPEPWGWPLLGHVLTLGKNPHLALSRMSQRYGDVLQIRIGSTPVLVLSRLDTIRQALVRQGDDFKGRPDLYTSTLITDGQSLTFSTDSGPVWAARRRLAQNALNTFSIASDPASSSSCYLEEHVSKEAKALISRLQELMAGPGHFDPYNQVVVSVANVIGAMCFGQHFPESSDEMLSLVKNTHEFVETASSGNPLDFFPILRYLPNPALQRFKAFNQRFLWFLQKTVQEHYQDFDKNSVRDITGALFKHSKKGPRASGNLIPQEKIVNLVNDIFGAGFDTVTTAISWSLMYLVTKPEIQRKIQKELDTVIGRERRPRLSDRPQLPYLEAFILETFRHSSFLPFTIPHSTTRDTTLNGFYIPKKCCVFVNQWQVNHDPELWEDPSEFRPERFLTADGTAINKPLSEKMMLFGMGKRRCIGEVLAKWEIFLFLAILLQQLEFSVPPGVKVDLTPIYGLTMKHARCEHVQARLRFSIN
Sequence of ERα (P03372 whole entry): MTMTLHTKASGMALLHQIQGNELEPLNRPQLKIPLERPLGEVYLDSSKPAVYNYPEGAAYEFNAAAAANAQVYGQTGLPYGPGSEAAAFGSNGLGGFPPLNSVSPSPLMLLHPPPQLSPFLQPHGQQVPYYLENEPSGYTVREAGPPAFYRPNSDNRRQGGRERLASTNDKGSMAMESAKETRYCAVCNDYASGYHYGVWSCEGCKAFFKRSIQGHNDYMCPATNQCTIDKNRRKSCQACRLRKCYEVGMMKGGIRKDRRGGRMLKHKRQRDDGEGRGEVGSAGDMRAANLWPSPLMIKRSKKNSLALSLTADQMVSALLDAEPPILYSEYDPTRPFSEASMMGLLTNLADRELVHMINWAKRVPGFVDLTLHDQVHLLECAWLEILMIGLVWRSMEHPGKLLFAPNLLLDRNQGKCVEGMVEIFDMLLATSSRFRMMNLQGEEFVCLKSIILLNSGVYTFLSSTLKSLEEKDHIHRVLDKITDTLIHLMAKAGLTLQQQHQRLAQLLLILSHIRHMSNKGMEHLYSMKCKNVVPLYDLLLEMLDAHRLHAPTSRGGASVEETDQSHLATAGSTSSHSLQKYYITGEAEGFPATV

Regarding `FCCCN1CC[C@H](Nc2cnc(C3=C(CC(F)(F)F)CCCc4c3ccc3[nH]nc(F)c43)cn2)C1` [Compound 11A], the figures for the IC50 at ERα, on CYP3A4 and against CYP1A2 were 0.00023 µM, 25.7 µM and above 50 µM, respectively.

Take `FCCCN1CC(Nc2ccc(C3=C(CC(F)(F)F)CCCc4c3ccc3[nH]nc(F)c43)nc2)C1` [Compound 2]: the DC50 at ERα is 0.0002 µM. Further, the IC50 – broadly, the concentration at which inhibition is half-maximal – against CYP3A4 was 47.2 µM; against CYP1A2 (human, 10 min) it was above 50 µM.

(Values after US12415799B2, “Indazole-fused cyclic compound” (Zhejiang Yangli Pharmaceutical Technology Co., Ltd., priority 2020, dated 2025).)
